# Experimental data as given in patent US5593985A, “Cephalosporin compounds” (priority 1994, dated 1997).
# Experiments:
# Format in all cases: cell-based
# Streptococcus faecium 8b = assay: MIC, standard strain 3; details: Enterococcus faecium; S. faecium 8b; two-fold dilution, Muller Hinton agar, 10^7 CFU/ml, 37° C., 18 hours; read-out: Minimal Inhibitory Concentration(MIC)
# Method: (§1) In order to illustrate antibiotic effectiveness of the compounds of the present invention, the minimal inhibitory concentrations (MIC's) of the representative compounds were determined against standard strains and compared with ceftazidime and cefpirome, which were used as control compounds.
# (§2) The MIC values were taken by employing a two-fold dilution method: that is, two-fold serial dilutions of each of the test compounds were made from initial concentration of […]; each 1.5 ml of them was dispersed in 13.5 ml of Muller Hinton agar medium to adjust to […]; the standard test strain which had the concentration of 10^7 CFU/ml was inoculated by medium;and these were incubated at 37° C. for 18 hours.
# (§3) The test used twenty kinds of standard test strains which induced urinary tract infections, respiratory organ infections, skin soft tissue infections, plasma infections, gastrointestinal infections, central nervous system infections, most of which produce β-lactamase. The standard test strains used are as follows:
# 3. Streptococcus faecium 8b
# [1] = system: Staphylococcus aureus 285; assay: MIC, standard strain 5; details: Staphylococcus aureus; S. aureus 285; two-fold dilution, Muller Hinton agar, 10^7 CFU/ml, 37° C., 18 hours; read-out: Minimal Inhibitory Concentration(MIC)
# Method: as §1, §2, §3
# 5. Staphylococcus aureus 285
# Escherichia coli 0 55 = assay: MIC, standard strain 7; details: 055, E. coli 0 55, two-fold dilution, Muller Hinton agar, 10^7 CFU/ml, 37° C., 18 hours, read-out: Minimal Inhibitory Concentration(MIC)
# Method: as §1, §2
# (§4) The test used twenty kinds of standard test strains which induced urinary tract infections, respiratory organ infections, skin soft tissue infections, plasma infections, gastrointestinal infections, central nervous system infections, most of which produce β-lactamase.
# Escherichia coli DC 0 = assay: MIC, standard strain 8; details: DC0, E. coli DC 0, two-fold dilution, Muller Hinton agar, 10^7 CFU/ml, 37° C., 18 hours, read-out: Minimal Inhibitory Concentration(MIC)
# Method: as §1, §2, §4
# [2] = system: Pseudomonas aeruginosa 9.027; assay: MIC, standard strain 12; details: Pseudomonas aeruginosa; P. aeruginosa 9.027; two-fold dilution, Muller Hinton agar, 10^7 CFU/ml, 37° C., 18 hours; read-out: Minimal Inhibitory Concentration(MIC)
# Method: as §1, §2, §3
# 12. Pseudomonas aeruginosa 9.027
# [3] = system: Pseudomonas aeruginosa 1592 E; assay: MIC, standard strain 13; details: P. aeruginosa 1592 E, two-fold dilution, Muller Hinton agar, 10^7 CFU/ml, 37° C., 18 hours, read-out: Minimal Inhibitory Concentration(MIC)
# Method: as §1, §2, §3
# 13. Pseudomonas aeruginosa 1592 E
# [4] = system: Pseudomonas aeruginosa 1771M; assay: MIC, standard strain 15; details: 18 h, read-out: Minimal Inhibitory Concentration(MIC)
# Method: as §1, §2, §3
# 15. Pseudomonas aeruginosa 1771M
# Salmonella typhimurium = assay: MIC, standard strain 16; details: Salmonella enterica; S. typhimurium; two-fold dilution, Muller Hinton agar, 10^7 CFU/ml, 37° C., 18 hours; read-out: Minimal Inhibitory Concentration(MIC)
# Method: as §1, §2, §3
# 16. Salmonella typhimurium
# [5] = system: Enterobacter cloacae P 99; assay: MIC, standard strain 19; details: P99, 18 h, read-out: Minimal Inhibitory Concentration(MIC)
# Method: as §1, §2, §3
# 19. Enterobacter cloacae P 99
# [6] = system: Enterobacter cloacae 1321 E; assay: MIC, standard strain 20; details: E. cloacae 1321 E, two-fold dilution, Muller Hinton agar, 10^7 CFU/ml, 37° C., 18 hours, read-out: Minimal Inhibitory Concentration(MIC)
# Method: as §1, §2, §3
# 20. Enterobacter cloacae 1321 E
# ATCC = assay: MIC, clinically separated strains; details: 18 h; 20 strains
# Method: as §2
# D Streptococcus I = assay: MIC, clinically separated strains; details: 18 h
# Method: as §2
# Enterobactercloacas = assay: MIC, clinically separated strains; details: Enterobacter cloacae, 18 h, 20 clinical strains
# Method: as §2
# Enterococcus I = assay: MIC, clinically separated strains; details: 18 h
# Method: as §2
# Escherichia coli = assay: MIC, clinically separated strains; details: 18 h
# Method: as §2
# Klebsiella oxytoca = assay: MIC, clinically separated strains; details: 18 h
# Method: as §2
# Methicillin Resistant = assay: MIC, clinically separated strains; details: 18 h, 19 clinical strains
# Method: as §2
# Morganella morganii = assay: MIC, clinically separated strains; details: 18 h
# Method: as §2
# Proteus mirabilis = assay: MIC, clinically separated strains; details: 18 h
# Method: as §2
# Proteus vulgaris = assay: MIC, clinically separated strains; details: 18 h
# Method: as §2
# Providencia rettgeri = assay: MIC, clinically separated strains; details: 18 h, read-out: range of MIC, 6 clinical strains
# Method: as §2
# Pseudomonas II = assay: MIC, clinically separated strains; details: 18 h
# Method: as §2
# Pseudomonas I = assay: MIC, clinically separated strains; details: 18 h
# Method: as §2
# MRSA(Yonsei Univ.) = assay: MIC, clinically separated strains
# Method: as §2
# Streptococcus I = assay: MIC, clinically separated strains; details: Streptococcus, 18 h; 20 clinical strains
# Method: as §2
# [7] = read-out: range of MIC, 20 clinical strains
# [8] = read-out: range of MIC, 5 clinical strains
# [9] = Staphylococcus aureus, MRSA, 18 h, 17 clinical strains
compound,measurement,setting,value
"CO/N=C(\C(=O)N[C@@H]1C(=O)N2C(C(=O)[O-])=C(C[n+]3cccc4c3CCC4)CS[C@H]12)c1csc(N)n1 [cefpirome, reference compound]",MIC,Streptococcus faecium 8b,25000 µg/mL
same,MIC,[1],781 µg/mL
same,MIC,Escherichia coli 0 55,13 µg/mL
same,MIC,Escherichia coli DC 0,49 µg/mL
same,MIC,[2],3120 µg/mL
same,MIC,[3],1560 µg/mL
same,MIC,[4],195 µg/mL
same,MIC,Salmonella typhimurium,25 µg/mL
same,MIC,[5],3120 µg/mL
same,MIC,[6],13 µg/mL
same,MIC50,ATCC,0.098 µg/mL
same,MIC90,ATCC,25 µg/mL
same,MIC50,D Streptococcus I; 20 clinical strains,25 µg/mL
same,MIC90,D Streptococcus I; 20 clinical strains,50 µg/mL
same,MIC,D Streptococcus I; [7],12.5 to 100 µg/mL
same,MIC,Enterobactercloacas; read-out: range of MIC,0.013 to 1.56 µg/mL
same,MIC50,Enterobactercloacas,0.025 µg/mL
same,MIC90,Enterobactercloacas,0.098 µg/mL
same,MIC50,Enterococcus I; 20 clinical strains,0.025 µg/mL
same,MIC90,Enterococcus I; 20 clinical strains,0.098 µg/mL
same,MIC,Enterococcus I; read-out: range of MIC,0.013 to 0.195 µg/mL
same,MIC50,Escherichia coli; 20 clinical strains,0.025 µg/mL
same,MIC90,Escherichia coli; 20 clinical strains,0.049 µg/mL
same,MIC,Escherichia coli; [7],0.025 to 0.391 µg/mL
same,MIC50,Klebsiella oxytoca; 20 clinical strains,0.025 µg/mL
same,MIC90,Klebsiella oxytoca; 20 clinical strains,0.781 µg/mL
same,MIC,Klebsiella oxytoca; [7],0.007 to 0.391 µg/mL
same,MIC,Methicillin Resistant; read-out: range of MIC,0.781 to 100 µg/mL
same,MIC50,Methicillin Resistant,12.5 µg/mL
same,MIC90,Methicillin Resistant,100 µg/mL
same,MIC50,Morganella morganii; 5 clinical strains,0.013 µg/mL
same,MIC90,Morganella morganii; 5 clinical strains,0.025 µg/mL
same,MIC,Morganella morganii; [8],0.013 to 0.025 µg/mL
same,MIC50,Proteus mirabilis; 4 clinical strains,0.013 µg/mL
same,MIC90,Proteus mirabilis; 4 clinical strains,0.049 µg/mL
same,MIC,"Proteus mirabilis; read-out: range of MIC, 4 clinical strains",0.007 to 0.049 µg/mL
same,MIC50,Proteus vulgaris; 5 clinical strains,0.049 µg/mL
same,MIC90,Proteus vulgaris; 5 clinical strains,0.098 µg/mL
same,MIC,Proteus vulgaris; [8],0.025 to 0.098 µg/mL
same,MIC,Providencia rettgeri,0.004 to 0.098 µg/mL
same,MIC50,Pseudomonas II,1.56 µg/mL
same,MIC90,Pseudomonas II,6.25 µg/mL
same,MIC,Pseudomonas II; read-out: range of MIC,0.781 to 12.5 µg/mL
same,MIC50,Pseudomonas I,1.56 µg/mL
same,MIC90,Pseudomonas I,6.25 µg/mL
same,MIC,Pseudomonas I; read-out: range of MIC,0.781 to 12.5 µg/mL
same,"antibiotic activities against MRSA(Yonsei Univ.), in words",MRSA(Yonsei Univ.),shows resistance to cefpirome
same,MIC,"MRSA(Yonsei Univ.); Staphylococcus aureus, MRSA, 18 h, read-out: range of MIC, 17 clinical strains",100 µg/mL
same,MIC50,MRSA(Yonsei Univ.); [9],100 µg/mL
same,MIC90,MRSA(Yonsei Univ.); [9],100 µg/mL
same,MIC50,Streptococcus I,0.025 µg/mL
same,MIC90,Streptococcus I,12.5 µg/mL
